In patent US20250296940A1, “ANNULATED 2-AMINO-3-CYANO THIOPHENES AND DERIVATIVES FOR THE TREATMENT OF CANCER” (Boehringer Ingelheim Int'l GmbH Corp., priority 2021, published 2025):

Columns and labels:
[1] = target: T1, protein-protein interaction between SOS1 and KRAS G12C (Homo sapiens, UniProt P01116, C118S/C51S/C80L/G12C); assay: KRAS::SOS1 AlphaScreen Binding Assay; settings: Table 20, compounds (I); 7.5 nM KRAS G12C, 10 μM GDP, 5 nM GST-SOS1
T1 construct: His6 (N); SOS1: in-house or Viva Biotech Ltd; host or cells: E. coli (KRAS)
T1 sequence (P01116 1-169 isoform P01116-2 G12C/C51S/C80L/C118S): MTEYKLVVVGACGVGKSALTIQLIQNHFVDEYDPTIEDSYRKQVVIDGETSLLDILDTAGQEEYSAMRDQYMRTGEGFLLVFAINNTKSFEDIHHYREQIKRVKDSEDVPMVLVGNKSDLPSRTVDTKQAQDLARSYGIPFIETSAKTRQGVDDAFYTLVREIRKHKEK
From the text: This assay can be used to examine the potency with which compounds according to the invention binding to KRAS G12C inhibit the protein-protein interaction between SOS1 and KRAS G12C. […] Low IC50 values in this assay setting are indicative of strong inhibition of protein-protein interaction between SOS1 and KRAS:
• GST-tagged SOS1 (564_1049_GST_TEV_ECO) produced in-house • GST-TEV-SOS1 (564-1049) is purchased from Viva Biotech Ltd. • The expression construct of KRAS G12C (amino acids 1-169 of reference sequence P01116-2 (uniprot), with additional mutations: C51S, C80L, and C118S) containing a C-terminal avi-tag was obtained by gene synthesis (GeneArt, Thermo Fisher) in donor vector (pDONR-221) and transferred by recombinant cloning into pDEST17 vector bearing an N-terminal His6-tag. The protein was expressed in E. coli and the purified protein was biotinylated with the E. coli biotin ligase (BirA) before usage. • GDP (Sigma Cat No G7127) • AlphaLISA Glutathione Acceptor Beads (PerkinElmer, Cat No AL109) • AlphaScreen Streptavidin Donor Beads (PerkinElmer Cat No 6760002) • Assay plates: Proxiplate-384 PLUS, white (PerkinElmer, Cat No 6008289)
7.5 nM (final assay concentration) KRAS G12C, 10 μM (final assay concentration) GDP and 5 nM (final assay concentration) GST-SOS1 are mixed in assay buffer prior to use and kept at room temperature.
AlphaLISA Glutathione Acceptor Beads and AlphaScreen Streptavidin Donor Beads are mixed in assay buffer at a concentration of 10 μg/mL (final assay concentration) each prior to use and kept at room temperature.
Compounds are diluted to a final start concentration of 100 μM and are tested in duplicate. Assay-ready plates (ARPs) are generated using an Access Labcyte Workstation with a Labcyte Echo 550 or 555 acoustic dispenser. For compound a start concentration of 100 μM, 150 nL of compound solution is transferred per well in 11 concentrations in duplicate with serial 1:5 dilutions.
The assay is run using a fully automated robotic system in a darkened room below 100 Lux. 10 μL of KRAS::SOS1 GDP mix is added into columns 1-24 to the 150 nL of compound solution (final dilution in the assay 1:100, final DMSO concentration 1%).
After 30 minutes incubation time 5 μL of bead mix is added into columns 1-23. Plates are kept at room temperature in a darkened incubator. After further 60 minutes incubation, the signal is measured using a PerkinElmer Envision HTS Multilabel Reader using the AlphaScreen specifications from PerkinElmer. Each plate contains the following controls: • diluted DMSO+KRAS::SOS1 GDP mix+bead mix • diluted DMSO+KRAS::SOS1 GDP mix
IC50 values are calculated and analyzed using a 4 parametric logistic model.
Tables of example compounds disclosed herein contain IC50 values determined using the above assay.

[2] = system: pERK (Thr202/Tyr204) in NCI-H358 cells (KRAS G12C mutation); assay: ERK phosphorylation assay (assay 1, NCI-H358); assay type: cell-based; settings: Homo sapiens; NCI-H358 (assay 1), 1 h compound incubation
From the text: Low IC50 values in this assay setting are indicative of high potency of the compounds according to the invention. […]
• RPMI-1640 Medium (ATCC® 30-2001™) • Fetal Bovine Serum (FBS) from HyClone (SH30071.03) • Non-essential amino acids from Thermo Fischer Scientific (11140035) • Pyruvate from Thermo Fischer Scientific (11360039) • Glutamax from Thermo Fischer Scientific (35050061) • 384 plates from Greiner Bio-One (781182) • Proxiplate™ 384 from PerkinElmer Inc. (6008280) • AlphaLISA SureFire Ultra p-ERK1/2 (Thr202/Tyr204) Assay Kit (ALSU-PERK-A500) EGF from Sigma (E4127) • Acceptor Mix: Protein A Acceptor Beads from PerkinElmer (6760137M) • Donor Mix: AlphaScreen Streptavidin-coated Donor Beads from PerkinElmer (6760002) • Trametinib • Staurosporine from Sigma Aldrich (S6942)
Cells are seeded at 40,000 cells per well in/60 μL of RPMI with 10% FBS, non-essential amino acids, pyruvate and glutamax in Greiner TC 384 plates. The cells are incubated for 1 h at room temperature and then incubated overnight in an incubator at 37° C. and 5% CO2 in a humidified atmosphere. 60 nL compound solution (10 mM DMSO stock solution) is then added using a Labcyte Echo 550 device. After a 1 h incubation in the aforementioned incubator the medium is removed after centrifugation and the cells lysed by addition of 20 μL of 1.6-fold lysis buffer from the AlphaLISA SureFire Ultra pERK1/2 (Thr202/Tyr204) Assay Kit with added protease inhibitors, 100 nM trametinib+100 nM staurosporine. After 20 minutes of incubation at room temperature with shaking, 6 μL of each lysate sample is transferred to a 384-well Proxiplate and analyzed for pERK (Thr202/Tyr204) with the AlphaLISA SureFire Ultra pERK1/2 (Thr202/Tyr204) Assay Kit. 3 μL Acceptor Mix and 3 μL Donor Mix are added under subdued light and incubated for 2 h at room temperature in the dark, before the signal is measured on a PerkinElmer Envision HTS Multilabel Reader. The raw data were imported into and analyzed with the Boehringer Ingelheim proprietary software MegaLab (curve fitting based on the program PRISM, GraphPad Inc.).
IC50 values of representative compounds (I) according to the invention measured with this assay are presented in table 22 (IC50s from assay 2 are marked with *, all others are from assay 1).

[3] = system: NCI-H358 cells (NSCLC, G12C); assay: NCI-H358 CTG proliferation assay (120 h); assay type: cell-based; settings: Homo sapiens, NCI-H358, CellTiter-Glo
Description: NCI-H358 cells (ATCC No. CRL-5807) are dispensed into white bottom opaque 96 well plates (Perkin Elmer cat no. 5680) at a density of 2000 cells per well in 100 μL RPMI-1640 ATCC-Formulation (Gibco #A10491)+10% FCS (fetal calf serum). […] Compounds (10 mM stock in DMSO) are added at logarithmic dose series using the HP Digital Dispenser D300 (Tecan), normalizing for added DMSO and including DMSO controls. For the TO time point measurement, untreated cells are analyzed at the time of compound addition. Plates are incubated for 120 h, and cell viability is measured using CellTiter-Glo luminescent cell viability reagent (Promega product code G7570). Viability (stated as percent of control) is defined as relative luminescence units RLU of each well divided by the RLU of cells in DMSO controls. IC50 values are determined from viability measurements by non-linear regression using a four parameter model.
IC50 values of representative compounds according to the invention measured with these assays in the indicated cell lines: […]

| SMILES | IC50 [1] [nM] | IC50 [2] [nM] | IC50 [3] [nM] |
| --- | --- | --- | --- |
| C=C(F)C(=O)N1[C@@H](C)CN(c2cc(O[C@@H](C)[C@@H]3CCCN3C)nc(-c3onc4c3CCC[C@@]43CCCc4sc(N)c(C#N)c43)n2)C[C@@H]1C [Ia-1] | 1.6 | 8.4 | 1 |
| C=CC(=O)N1[C@@H](C)CN(c2cc(O[C@@H](C)[C@@H]3CCCN3C)nc(-c3onc4c3CCC[C@@]43CCCc4sc(N)c(C#N)c43)n2)C[C@@H]1C [Ia-2] | < 1.5 | 1.1 | < 1 |
| C=C(F)C(=O)N1[C@@H](C)CN(c2cc(-c3onc4c3CCC[C@@]43CCCc4sc(N)c(C#N)c43)nc(O[C@@H](C)[C@@H]3CCCN3C)n2)C[C@@H]1C [Ia-3] | 4 | 16.4 | 7 |
| C=CC(=O)N1[C@@H](C)CN(c2cc(-c3onc4c3CCC[C@@]43CCCc4sc(N)c(C#N)c43)nc(O[C@@H](C)[C@@H]3CCCN3C)n2)C[C@@H]1C [Ia-4] | 1.6 |  | < 1 |
| C[C@H](Oc1cc(N2C[C@H](C)N(C(=O)/C=C/CF)[C@@H](C)C2)nc(-c2noc3c2CCC[C@@]32CCCc3sc(N)c(C#N)c32)n1)[C@@H]1CCCN1C [Ib-1] | 1.7 | 4.2 | 1 |
| C=CC(=O)N1CCN(c2cc(O[C@@H](C)[C@@H]3CCCN3C)nc(-c3noc4c3CCC[C@@]43CCCc4sc(N)c(C#N)c43)n2)CC12CC2 [Ib-2] | 1.3 | 1 | 1 |
| C=CC(=O)N1[C@@H](C)CN(c2cc(O[C@@H](C)[C@@H]3CCCN3C)nc(-c3noc4c3CCC[C@@]43CCCc4sc(N)c(C#N)c43)n2)C[C@@H]1C [Ib-3] | 1.5 | 1.3 | < 1 |
| C=CC(=O)N1[C@@H](C)CN(c2cc(-c3noc4c3CCC[C@@]43CCCc4sc(N)c(C#N)c43)nc(O[C@@H](C)[C@@H]3CCCN3C)n2)C[C@@H]1C [Ib-4] | 1.4 | 0.4 | < 1 |
| C=C(F)C(=O)N1[C@@H](C)CN(c2cc(O[C@@H](C)[C@@H]3CCCN3C)nc(-c3noc4c3CCC[C@@]43CCCc4sc(N)c(C#N)c43)n2)C[C@@H]1C [Ib-5] | 1.6 | 7.7 | 1 |
| C=C(F)C(=O)N1[C@@H](C)CN(c2cc(-c3noc4c3CCC[C@@]43CCCc4sc(N)c(C#N)c43)nc(O[C@@H](C)[C@@H]3CCCN3C)n2)C[C@@H]1C [Ib-6] | 2.1 | 5.3 | 2 |
| C[C@H](Oc1nc(-c2noc3c2CCC[C@@]32CCCc3sc(N)c(C#N)c32)cc(N2C[C@H](C)N(C(=O)/C=C/CF)[C@@H](C)C2)n1)[C@@H]1CCCN1C [Ib-7] | 3.1 | 4.7 | 4 |
| C[C@H](Oc1nc(-c2noc3c2CCC[C@@]32CCCc3sc(N)c(C#N)c32)cc(N2C[C@H](C)N(C(=O)/C=C/c3cccnc3)[C@@H](C)C2)n1)[C@@H]1CCCN1C [Ib-8] | 3.2 | 26.9 | 85 |
| COC/C=C/C(=O)N1[C@@H](C)CN(c2cc(-c3noc4c3CCC[C@@]43CCCc4sc(N)c(C#N)c43)nc(O[C@@H](C)[C@@H]3CCCN3C)n2)C[C@@H]1C [Ib-9] | 6.2 | 373 | 90 |
